The source of these data is patent publication US8168651B2, “Protein kinase modulators” (Cylene Pharmaceuticals, Inc., priority 2008, dated 2012).

The target of one assay is recombinant human CK2 (Homo sapiens (Human), UniProt P68400). The experiment in a line: CK2 assay (cell-free, 33P-ATP filter plate). It is filed as biochemical. To be noted: 500 nM compound, cell-free assay; read-out: CK2: % inh 500 nM.
Assay [1] relates to HCT-116 human colorectal carcinoma cells. The assay is described as follows: Cell-proliferation assay using Alamar Blue dye.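 Also: cells exposed to compound for about 4 days, then Alamar Blue added and dye fluorescence read after about 4 h, compared with medium-only control wells.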 The class given is cell-based. To be noted: Homo sapiens, HCT-116, second HCT-116 column (c8); read-out: HCT-116 (uM) cell proliferation modulatory activity.
For another assay, the target named is recombinant human PIM1 (Homo sapiens (Human), UniProt P11309). The assay is described as follows: PIM-1 kinase activity in cell-free in vitro assay. It is filed as biochemical. To be noted: cell-free assay; for inhibition at 0.5 µM: 500 nM compound, read-out: PIM-1: % inh 500 nM.
In the next assay the test system is K-562. The assay is described as follows: Cell proliferation modulatory activity, K-562. It is filed as cell-based. To be noted: Homo sapiens, K562; K-562 cells.
Another assay relates to MV-4-11. The assay is described as follows: Cell proliferation modulatory activity, MV-4-11. As to conditions: Homo sapiens, MV4-11; MV-4-11 cells. It is filed as cell-based.

SMILES strings stand for the structures. Bounds are passed on as bounds.

Sequence of recombinant human PIM1 (P11309 whole entry): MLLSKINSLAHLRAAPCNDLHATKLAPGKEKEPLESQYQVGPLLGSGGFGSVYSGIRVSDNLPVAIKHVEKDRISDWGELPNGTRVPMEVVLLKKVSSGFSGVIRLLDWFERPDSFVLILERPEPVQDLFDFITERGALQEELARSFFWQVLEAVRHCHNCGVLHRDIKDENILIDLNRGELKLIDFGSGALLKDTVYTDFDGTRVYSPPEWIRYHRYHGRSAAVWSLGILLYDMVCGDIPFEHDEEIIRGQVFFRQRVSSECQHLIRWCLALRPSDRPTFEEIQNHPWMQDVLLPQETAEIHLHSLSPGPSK
Sequence of recombinant human CK2 (P68400 whole entry): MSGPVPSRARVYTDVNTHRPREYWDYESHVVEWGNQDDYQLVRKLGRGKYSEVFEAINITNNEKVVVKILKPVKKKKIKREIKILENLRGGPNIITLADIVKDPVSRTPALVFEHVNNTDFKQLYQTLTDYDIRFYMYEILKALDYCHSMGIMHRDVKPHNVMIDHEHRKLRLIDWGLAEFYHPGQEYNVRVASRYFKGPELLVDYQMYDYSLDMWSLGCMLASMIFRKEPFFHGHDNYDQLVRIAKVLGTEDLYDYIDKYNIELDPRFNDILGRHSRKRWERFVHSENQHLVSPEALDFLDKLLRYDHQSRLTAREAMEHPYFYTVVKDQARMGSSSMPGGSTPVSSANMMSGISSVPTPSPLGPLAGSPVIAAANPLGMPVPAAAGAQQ
Sequence of recombinant human CK2 (P67870 whole entry partner): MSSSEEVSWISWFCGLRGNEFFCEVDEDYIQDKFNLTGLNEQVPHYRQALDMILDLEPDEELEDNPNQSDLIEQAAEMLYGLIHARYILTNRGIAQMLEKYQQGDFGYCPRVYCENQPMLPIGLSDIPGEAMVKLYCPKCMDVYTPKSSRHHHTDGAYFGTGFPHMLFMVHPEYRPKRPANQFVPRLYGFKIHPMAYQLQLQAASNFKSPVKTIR

In the case of `NC(=O)c1cccc(Nc2nc3cc(C(=O)O)ccc3c3cnccc23)c1`, the inhibition at 0.5 µM amounted to 101% on recombinant human CK2 and 74.8% at recombinant human PIM1. Moreover, the IC50 is more than 10 µM in assay [1], 0.16 µM on recombinant human PIM1, more than 10 µM in the assay with K-562 and more than 10 µM in the assay on MV-4-11.
As for `CN(c1ccccc1)c1nc2cc(C(=O)O)ccc2c2cnccc12`, the inhibition at 0.5 µM was found to be 89% at recombinant human CK2 and 71.2% at recombinant human PIM1. Besides, the values for the IC50 (in assay [1]; at recombinant human PIM1; in the assay on K-562) were more than 10 µM, 0.439 µM and more than 10 µM, respectively.
Regarding `O=C(O)c1ccc2c(c1)nc(Nc1ccccc1OC(F)(F)F)c1ccncc12`, the inhibition at 0.5 µM on recombinant human CK2 is 92%; at recombinant human PIM1 it was 32.5%. The IC50 (in assay [1]; in the assay with K-562) was more than 10 µM each time.
Consider `CN(C)C1CCN(c2nc3cc(C#N)ccc3c3sccc23)CC1`, for which the inhibition at 0.5 µM is -0.522% at recombinant human CK2 and 20.3% at recombinant human PIM1. For the same compound, the values for the IC50 (in assay [1]; with K-562; in the assay on MV-4-11) were 6.57 µM, more than 10 µM and 6.05 µM, respectively.
For the compound `CN(C)c1ncc2c(n1)c(N(C)c1ccccc1)nc1cc(C(=O)O)ccc12`, the inhibition at 0.5 µM on recombinant human CK2 amounted to 14%; on recombinant human PIM1, 12.2%. For the same compound, the IC50 (in assay [1]; in the assay with K-562; in the assay on MV-4-11) was more than 10 µM throughout.
As to `O=C(O)c1ccc2c(c1)nc(Nc1ccccc1)c1cccnc12`, the inhibition at 0.5 µM was 25.5% at recombinant human CK2 and 34.7% at recombinant human PIM1. Further, the IC50 (in assay [1]; with K-562; in the assay on MV-4-11) was more than 10 µM throughout.
In the case of `Clc1cccc(Nc2nc3cc(-c4nnn[nH]4)ccc3c3ccsc23)c1`, the figures for the inhibition at 0.5 µM at recombinant human CK2 and at recombinant human PIM1 were 56.2% and 31.9%, respectively. Besides, the values for the IC50 (in assay [1]; with K-562; in the assay on MV-4-11) were more than 10 µM, more than 10 µM and 4.47 µM, respectively.
As to `Clc1cccc(Nc2nc3cc(-c4nnn[nH]4)ccc3c3cscc23)c1`, the inhibition at 0.5 µM at recombinant human CK2 was 63.3%; on recombinant human PIM1, 17.9%. Besides, the IC50 (in assay [1]; in the assay with K-562; in the assay on MV-4-11) was more than 10 µM in each case.
Consider `CC(C)(C)OC(=O)N1CCCC1CNc1nc2cc(-c3nnn[nH]3)ccc2c2sccc12` (centres unmarked), for which the inhibition at 0.5 µM came out at 27% on recombinant human CK2 and 35% on recombinant human PIM1. Further, the IC50 (in assay [1]; with K-562; with MV-4-11) was more than 10 µM throughout.
`CN(CCc1ccccn1)c1nc2cc(C(=O)O)ccc2c2cnccc12`: the inhibition at 0.5 µM is 90.8% at recombinant human CK2 and 3.73% at recombinant human PIM1. Also, the IC50 was 0.902 µM in assay [1], 7.2 µM with K-562 and 1.54 µM with MV-4-11.
With `CCN1CCCC1CNc1nc2cc(-c3nnn[nH]3)ccc2c2sccc12` (centres unmarked), the results for the inhibition at 0.5 µM on recombinant human CK2 and at recombinant human PIM1 were 55.7% and 103%, respectively. The IC50 in assay [1] came to 0.397 µM; on recombinant human PIM1 it was 0.098 µM; in the assay with K-562 it was 0.175 µM; with MV-4-11 it was 0.174 µM.
In the case of `COC(=O)c1ccc2c(c1)nc(N(C)CCc1ccccn1)c1ccncc12`, the inhibition at 0.5 µM on recombinant human CK2 is -3.68%; at recombinant human PIM1 it was -5.84%. The IC50 (in assay [1]; in the assay with K-562; in the assay on MV-4-11) was more than 10 µM throughout.
For the compound `COC(=O)c1ccc2c(c1)nc(NCCN(C)C)c1ccsc12`, the inhibition at 0.5 µM is -0.704% at recombinant human CK2 and -6.89% at recombinant human PIM1. Also, the IC50 was 1.52 µM in assay [1], 1.09 µM in the assay on K-562 and 0.73 µM in the assay with MV-4-11.
With `O=C(O)c1ccc2c(c1)nc(NCCNc1ccccc1)c1ccncc12`, the IC50 is more than 10 µM in assay [1], 0.7 µM at recombinant human PIM1, more than 10 µM with K-562 and 0.185 µM in the assay on MV-4-11.
As for `CN(C)CCNc1nc2cc(C(N)=O)ccc2c2sccc12`, the inhibition at 0.5 µM at recombinant human CK2 stood at 15.6%; on recombinant human PIM1 it was 34%. Moreover, the IC50 worked out at 4.29 µM in assay [1], 0.198 µM in the assay with K-562 and 0.402 µM with MV-4-11.
Taken in the same sequence, the figures for `N#Cc1ccc2c(c1)nc(NCCn1ccnc1)c1ccsc12` were -14.9%, -0.12%, more than 10 µM, more than 10 µM and more than 10 µM.
`Cn1cnnc1-c1cccc(Nc2nc3cc(C(=O)O)ccc3c3cnccc23)c1`: the inhibition at 0.5 µM came out at 94.4% on recombinant human CK2 and 54.9% at recombinant human PIM1. In addition, the IC50 in assay [1] was more than 10 µM; on recombinant human PIM1 it was 0.344 µM; in the assay on K-562 it was more than 10 µM; with MV-4-11, more than 10 µM.
Take `CN(c1nc2cc(C#N)ccc2c2sccc12)C(C1CC1)C1CC1`: the inhibition at 0.5 µM at recombinant human CK2 was -17.1%; at recombinant human PIM1, -19%. Moreover, the IC50 (in assay [1]; with K-562; with MV-4-11) was more than 10 µM throughout.
`CN1CCCC(Nc2nc3cc(C#N)ccc3c3sccc23)C1` (centres unmarked): the figures for the inhibition at 0.5 µM at recombinant human CK2 and at recombinant human PIM1 were -17.5% and 20.8%, respectively. Also, the IC50 came to 1.42 µM in assay [1], 5.06 µM in the assay with K-562 and 3.23 µM with MV-4-11.
Turning to `O=C(O)c1ccc2c(c1)nc(Nc1ccccc1Cl)c1ccncc12`, the inhibition at 0.5 µM on recombinant human CK2 was determined as 97.3%; on recombinant human PIM1 it was 70.7%. The IC50 in assay [1] was more than 10 µM; on recombinant human PIM1, 0.372 µM; in the assay on K-562 it was more than 10 µM.
Regarding `COC(=O)c1ccc2c(c1)nc(NN)c1ccncc12`, the values for the inhibition at 0.5 µM on recombinant human CK2 and on recombinant human PIM1 were -8.65% and -32.4%, respectively. The IC50 (in assay [1]; in the assay on K-562) was more than 10 µM throughout.
For the compound `Cc1cc(Nc2nc3cc(C(=O)O)ccc3c3cnccc23)c2ccccc2n1`, the inhibition at 0.5 µM turned out to be 96.6% at recombinant human CK2 and 24.9% at recombinant human PIM1. Besides, the IC50 (in assay [1]; in the assay with K-562) was more than 10 µM throughout.
With `O=C(O)c1ccc2c(c1)nc(Nc1ccn[nH]1)c1ccncc12`, the inhibition at 0.5 µM stood at 94.8% at recombinant human CK2 and 1.37% on recombinant human PIM1. Besides, the IC50 (in assay [1]; with K-562) was more than 10 µM each time.
As to `O=C(O)c1ccc2c(c1)nc(Nc1cccc(Cl)c1)c1ncccc12`, the results for the inhibition at 0.5 µM at recombinant human CK2 and at recombinant human PIM1 were 40% and 16.7%, respectively. Besides, the IC50 (in assay [1]; in the assay on K-562) was more than 10 µM throughout.
Consider `Cc1nccn1CCNc1nc2cc(C(=O)O)ccc2c2cnccc12`, for which the IC50 in assay [1] is more than 10 µM; on recombinant human PIM1 it was 0.287 µM; with K-562, more than 10 µM; in the assay on MV-4-11, more than 10 µM. Moreover, the inhibition at 0.5 µM at recombinant human PIM1 worked out at 97.1%.
With `CON(C)c1nc2cc(C(=O)O)ccc2c2cnccc12`, the results for the inhibition at 0.5 µM on recombinant human CK2 and on recombinant human PIM1 were 84.7% and 55.7%, respectively. Moreover, the IC50 was more than 10 µM in assay [1], 0.897 µM at recombinant human PIM1 and more than 10 µM with K-562.
In the case of `O=C(O)c1ccc2c(c1)nc(N1CCc3ccccc31)c1ccncc12`, the inhibition at 0.5 µM at recombinant human CK2 came to 90.2%; at recombinant human PIM1, 9.63%. The IC50 (in assay [1]; with K-562) was more than 10 µM in each case.
As for `CN(c1ccccc1)c1nc2cc(C(=O)O)ccc2c2cnc(N)nc12`, the IC50 in assay [1] is more than 10 µM; at recombinant human PIM1, 0.223 µM; in the assay with K-562 it was more than 10 µM; in the assay with MV-4-11, more than 10 µM.
`CSc1ncc2c(n1)c(Nc1ccccc1C)nc1cc(C(=O)O)ccc12`: the IC50 (in assay [1]; with K-562) was more than 10 µM in each case. On recombinant human PIM1, the inhibition at 0.5 µM was determined as 9.67%.
Turning to `Cn1nc(C2CC2)cc1Nc1nc2cc(C(=O)O)ccc2c2cnccc12`, the inhibition at 0.5 µM on recombinant human CK2 was found to be 96.2%; at recombinant human PIM1, 45.8%. Also, the IC50 (in assay [1]; in the assay with K-562) was more than 10 µM in each case.
In the case of `Cc1ccccc1Nc1nc2cc(C(=O)N(C)C)ccc2c2cnc(NC3CC3)nc12`, the IC50 (in assay [1]; in the assay with K-562) was more than 10 µM in each case. Moreover, the inhibition at 0.5 µM on recombinant human PIM1 is 0.71%.
Regarding `COC(=O)c1ccc2c(c1)nc(N(C)c1ccccc1)c1nc(S(C)(=O)=O)ncc12`, the IC50 in assay [1] turned out to be 4.36 µM; with K-562, 0.334 µM. Further, the inhibition at 0.5 µM on recombinant human PIM1 was found to be 9.84%.
On to `CONc1nc2cc(C(=O)O)ccc2c2cnccc12`, for which the inhibition at 0.5 µM is 94.7% on recombinant human CK2 and 34.9% on recombinant human PIM1. For the same compound, the IC50 (in assay [1]; in the assay with K-562) was more than 10 µM throughout.
Take `CNC(=O)c1ccc2c(c1)nc(N(C)c1ccccc1)c1nc(NC3CC3)ncc12`: the IC50 in assay [1] was 9.74 µM; in the assay on K-562, more than 10 µM. For the same compound, the inhibition at 0.5 µM at recombinant human PIM1 was 12.6%.
With `O=C(O)c1ccc2c(c1)nc(Nc1ccc(F)c(Cl)c1)c1ncccc12`, the inhibition at 0.5 µM at recombinant human CK2 was 12.3%; at recombinant human PIM1 it was -15.5%. The IC50 (in assay [1]; with K-562) was more than 10 µM in each case.
Regarding `O=C(O)c1ccc2c(c1)nc(NCC1CCN1Cc1ccccc1)c1ccncc12` (centres unmarked), the figures for the inhibition at 0.5 µM at recombinant human CK2 and at recombinant human PIM1 were 55.9% and -7.8%, respectively. The IC50 (in assay [1]; in the assay on K-562) was more than 10 µM in each case.
As for `Cc1ccccc1Nc1nc2cc(C(=O)NC3CC3)ccc2c2cnc(NC3CC3)nc12`, the IC50 (in assay [1]; with K-562) was more than 10 µM each time. Further, the inhibition at 0.5 µM on recombinant human PIM1 came to 5.72%.
In the case of `Cc1ccccc1Nc1nc2cc(C(=O)O)ccc2c2cnc(NC3CC3)nc12`, the IC50 in assay [1] is 10 µM; in the assay on K-562 it was 0.769 µM; in the assay with MV-4-11 it was 0.165 µM. Also, the inhibition at 0.5 µM at recombinant human PIM1 worked out at 31.9%.
Turning to `CNC(=O)c1ccc2c(c1)nc(Nc1ccccc1C)c1nc(NC3CC3)ncc12`, the figures for the IC50 (in assay [1]; in the assay on K-562) were 1.61 µM and more than 10 µM, respectively. Moreover, the inhibition at 0.5 µM on recombinant human PIM1 is 4.21%.
